# Measured values: publication PMC6222779, “Enzyme-Site Blocking Combined with Optimization of Molecular Docking for Efficient Discovery of Potential Tyrosinase Specific Inhibitors from Puerariae lobatae Radix” (Molecules : A Journal of Synthetic Chemistry and Natural …, 2018)
# Like-named read-outs stand apart in the source and are kept apart here.
# Legend:
# TYR [1] = molecular target: T1, TYR (Agaricus bisporus, UniProt C7FF04); test: TYR inhibit assay (spectrophotometry, L-tyrosine substrate); format: biochemical; design: purchased Sigma-Aldrich
# Method: TYR inhibition by PLR extract solution, selected compounds and Kojic acid was analyzed by spectrophotometry. The solution comprised 50 µL of the mixed ligand solution (the corresponding ligand standards were diluted 50-fold with PBS) incubated with 50 µL TYR solution (0.1 U/mL ) for 30 min at room temperature, followed by the addition of 100 µL L-tyrosine (0.4 mM) and incubation for another 30 min at 30 °C. Absorbance was measured in triplicate at 480 nm and inhibition ratios were calculated from the mean of the triplicate observations according to Equation (2):(2) Inhibitory Ratio (%) = Ab−Ae/Ab × 100%, where Ab and Ae represented the absorption of blank groups and experiment groups, respectively.
# Target sequence in this assay (C7FF04 1-392): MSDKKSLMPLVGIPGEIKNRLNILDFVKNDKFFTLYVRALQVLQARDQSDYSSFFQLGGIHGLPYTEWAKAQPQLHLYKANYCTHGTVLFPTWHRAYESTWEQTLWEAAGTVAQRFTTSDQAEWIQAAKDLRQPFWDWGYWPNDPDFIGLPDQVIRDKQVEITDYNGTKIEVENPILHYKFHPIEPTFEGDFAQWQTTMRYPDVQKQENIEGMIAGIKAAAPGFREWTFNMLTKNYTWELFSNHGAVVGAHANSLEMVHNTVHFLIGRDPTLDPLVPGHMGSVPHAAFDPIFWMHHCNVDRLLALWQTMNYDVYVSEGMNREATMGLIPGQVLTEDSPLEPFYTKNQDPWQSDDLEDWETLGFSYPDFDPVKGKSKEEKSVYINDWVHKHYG
# TYR [2] = molecular target: T1, TYR; test: TYR-site blocking affinity ultrafiltration screening with HPLC; settings: specific ligand when (Ab − Ae)/Ab ≥ 50% and (Ac − Ae)/Ac ≥ 50%; TYR 0.1 mg/mL, 30 °C, 30 min, 5000× g; peaks of PLR extract
# Target sequence in this assay (C7FF04 1-392 limits assumed): as the sequence (C7FF04 1-392) above
# Method: PLR-extract solution (100 µL) mixed with 100 µL diluted TYR solution and incubated at the best UF parameters. The unbound compounds can pass through the ultrafiltration membrane into the filtrates (F1), whereas the enzyme-ligand complexes remained in the chamber. After washing the retained complexes twice with 200 µL PBS (pH 6.8) to remove the residual unbound compounds, 200 µL methanol (80% (v/v)) was added into chamber and ultrasonic for 15 min to disrupt the complexes and release the ligands. The mixture was then centrifuge at 5000× g for 15 min, the filtrates (F2) containing the selected compounds were passed through a 0.45 µm filter membrane prior to HPLC analysis. For blank groups, PBS (pH 6.8) containing 2% DMSO was used to incubate with the TYR solution, followed by performance of the protocol described here. All experiments were performed in triplicate.
# The PLR extract solution was added to the reaction solution and the protocol described in Section 2.5 was followed prior to HPLC analysis. All experiments were performed in triplicate.
# [3] = TYR inhibitory activity, L-tyrosine 0.4 mM, absorbance at 480 nm, triplicate, read-out: IC50 ± SD
IC50 (TYR [1]; [3]) [µM],SMILES,IC50 (TYR [1]) [µM],binding to TYR in ultrafiltration with kojic acid site blocking (TYR [2])
,"O=c1c(-c2ccc(O)cc2)coc2cc(O[C@@H]3O[C@H](CO)[C@@H](O)[C@H](O)[C@H]3O)ccc12 [Daidzin, daidzin]",> 500,potential specific TYR ligands
> 500,"O=c1c(-c2ccc(O)cc2)coc2cc(O[C@@H]3O[C@H](CO)[C@@H](O)[C@H](O)[C@H]3O)cc(O)c12 [Genistin, genistin]",,potential specific TYR ligands
,"O=c1c(-c2ccc(O)cc2)coc2c([C@@H]3O[C@H](CO)[C@@H](O)[C@H](O)[C@H]3O)c(O)ccc12 [Puerarin, puerarin]",9.83 ± 1.45,potential specific TYR ligands
,"COc1ccc2c(c1)OC(=O)C=C(c1ccc(O)cc1)C(OC1OC(CO)C(O)C(O)C1O)C2 (stereo not shown) [compound 11, sophoroside A]",,not recognized as specific TYR inhibitors
12.7 ± 2.77,"O=c1c(-c2ccc(O)cc2)coc2c(C3OC(COC4OCC(O)(CO)C4O)C(O)C(O)C3O)c(O)ccc12 (stereo not shown) [Mirificin, mirificin]",,potential specific TYR ligands
,"O=c1c(-c2ccc(O)cc2)coc2c(C3OC(COC4OCC(O)(CO)C4O)C(O)C(O)C3O)c(O)cc(O)c12 (stereo not shown) [compound 7, genistein-8-C-apiosyl(16)-glucoside]",,not recognized as specific TYR inhibitors
